# Source: patent US20210393621A1, “COMBINATION SEROTONIN SPECIFIC REUPTAKE INHIBITOR AND SEROTONIN 1A RECEPTOR PARTIAL AGONIST FOR REDUCING L-DOPA-INDUCED DYSKINESIA” (The Research Foundation for The State University of new York, priority 2018, published 2021)
# “Also recorded” adds a separate entry of the source.
# Tests used:
# [1] = tested on: 6-OHDA-lesioned hemi-parkinsonian rats; experiment: Experiment 1: AIMs, established LID in L-DOPA-primed hemi-parkinsonian rats; type: in vivo, Sprague-Dawley rats
# [2] = tested on: 6-OHDA-lesioned hemi-parkinsonian rats; experiment: Experiment 1: forepaw adjusting steps (FAS); type: in vivo, Sprague-Dawley rats
# Description: Conti et al., 2014). […] Forepaw adjusting steps (FAS): The FAS test is a measure of forelimb akinesia performed according to previous protocols (Bishop et al., 2012; Chang et al., 1999). Data are presented as mean percent intact stepping where the sum of the total steps with the lesioned forepaw was divided by the total steps with the unlesioned forepaw multiplied by 100. Lower percent intact scores indicate greater forelimb akinesia. Prior to baseline, rats received 2 acclimation periods. On-treatment FAS was performed 60 min post-L-DOPA.
# [3] = tested on: unilateral 6-OHDA-lesioned rats; experiment: Example 2: L-DOPA-induced dyskinesias (LIDs) scoring; type: in vivo, Sprague-Dawley rats; details: pretreatment with vilazodone 10 mg/kg or escitalopram 12.5 mg/kg before L-DOPA 5 mg/kg, 2 weeks; hydrochloride
# Experimental: 6-OHDA-induced dopaminergic lesions: Adult male Sprague-Dawley rats were randomly assigned to groups receiving either a 6-OHDA or sham lesion. […] [[…] 2019]. […] Rats were treated for 5 consecutive days/week (Mon-Fri), for 2 weeks. […] All rats were evaluated three times per week for the presence of L-DOPA-induced dyskinesias (LIDs) (Wed-Fri) and once for the stepping test (Tue). […] Scores were given over 1 min epochs and classified as axial, limb, orolingual and locomotive. […] Arrows=inhibitory input; dashed arrows=compromised function. The severity of each LID was scored using a standard scale. Each dyskinetic behavior was given an intensity and frequency score, which were then multiplied. The average sum of the products of each LID was determined in each animal.
# [4] = tested on: MSNs of dyskinetic 6-OHDA-lesioned rats; experiment: Example 2: electrophysiology of corticostriatal transmission and striatal MSN activity; type: in vivo; details: vilazodone co-administration with L-DOPA
# Experimental: Rats were treated for 5 consecutive days/week, for 2 weeks. On the second day of each week, stepping tests were performed prior to drug administration, and 60 minutes post L-DOPA treatment. Behavioral assessment of LIDs was performed (30-180 min) at the end of each week. […] Electrophysiological studies were conducted to assess the impact of these treatments on corticostriatal transmission and striatal neuronal activity.
# [5] = biological target: norepinephrine transporter (NET) (Homo sapiens, UniProt P23975); details: read-out: Ki for NET (norepinephrine reuptake site); cited from earlier work
# [6] = tested on: striatal and raphe tissue monoamines; experiment: Experiment 1: HPLC of tissue monoamines and metabolites in striatum and dorsal raphe nucleus; details: for 5-HIAA / 5-HT / 5-HT Turnover / DA Turnover / DOPAC / DA: 60 min post-LD
# Experimental: Three-weeks post-lesion, animals were divided into 2 equally disabled groups, measured by forepaw adjusting steps (FAS, see below). One group (n=8) began receiving 14 days of daily vehicle (0.9% NaCl+0.1% ascorbic acid) and the other (n=22) received L-DOPA methyl ester (6 mg/kg, s.c.; Sigma)+DL-serine 2-(2,3,4-trihydroxybenzyl) hydrazine hydrochloride (benserazide; 15 mg/kg, s.c.; Sigma), hereafter L-DOPA, dissolved in vehicle at a volume of 1 mg/kg. Treatment persisted for 14 days to produce stable AIMs expression (Putterman et al., 2007; Conti et al., 2014). Thereafter, L-DOPA-treated animals with Axial, Limb, and Orolingual (ALO) AIMs (see description below, FIG. 1A)<30 were excluded from the study and the remaining L-DOPA-treated animals were divided into 3 equally dyskinetic groups. […] Daily injections continued over 23 days, with behavior assayed on Days 15, 22, 29, and 36. On Day 37, animals were killed 60 min post-treatment Left and right dorsal striata and DRN were dissected and flash frozen for HPLC analyses.
# High-performance liquid chromatography (HPLC): HPLC, a method for semi-automated catecholamine analysis with coulometric detection, was performed according to prior protocols (Bishop et al., 2009) to determine the tissue levels of monoamines, their metabolites, and monoamine turnover in the striatum and DRN. The limit of detection for DOPAC, DA, 5-hydroxyindoleacetic acid (5-HIAA) and 5-HT was 10^−10 M. Final oxidation current values were plotted on a standard curve from 10^−6 M to 10^−9 M and expressed as pg of monoamine or metabolite per mg of tissue unless otherwise specified.
# On the final treatment day, animals were sacrificed 60 min post-LD treatment and left and right striata and dorsal raphe nucleus (DRN) were collected for high performance liquid chromatography (HPLC) analysis. Values (means±standard mean error) are expressed as picograms of monoamine or metabolite per milligram wet tissue weight. Turnover estimates were determined by dividing a subjects metabolite value by its corresponding monoamine. Differences were assessed by a 2×4 (lesion×treatment) ANOVA, followed by Fisher's LSD post-hocs when appropriate. *p<0.01 vs lesion vs intact; +p<0.05 vs all; ^p<0.05 vs VZD (0)+LD (0); #p<0.05 vs VZD (0)+LD (6)
# [7] = Dorsal Raphe Nucleus, VZD(10) + LD(6) mg/kg
# [8] = Dorsal Raphe Nucleus, VZD(20) + LD(6) mg/kg
# [9] = Striatum, Intact, VZD(10) + LD(6) mg/kg
# [10] = Striatum, Intact, VZD(20) + LD(6) mg/kg
# [11] = Striatum, Lesion, VZD(10) + LD(6) mg/kg
# [12] = Striatum, Lesion, VZD(20) + LD(6) mg/kg
# Sequence of norepinephrine transporter (NET) (P23975 whole entry): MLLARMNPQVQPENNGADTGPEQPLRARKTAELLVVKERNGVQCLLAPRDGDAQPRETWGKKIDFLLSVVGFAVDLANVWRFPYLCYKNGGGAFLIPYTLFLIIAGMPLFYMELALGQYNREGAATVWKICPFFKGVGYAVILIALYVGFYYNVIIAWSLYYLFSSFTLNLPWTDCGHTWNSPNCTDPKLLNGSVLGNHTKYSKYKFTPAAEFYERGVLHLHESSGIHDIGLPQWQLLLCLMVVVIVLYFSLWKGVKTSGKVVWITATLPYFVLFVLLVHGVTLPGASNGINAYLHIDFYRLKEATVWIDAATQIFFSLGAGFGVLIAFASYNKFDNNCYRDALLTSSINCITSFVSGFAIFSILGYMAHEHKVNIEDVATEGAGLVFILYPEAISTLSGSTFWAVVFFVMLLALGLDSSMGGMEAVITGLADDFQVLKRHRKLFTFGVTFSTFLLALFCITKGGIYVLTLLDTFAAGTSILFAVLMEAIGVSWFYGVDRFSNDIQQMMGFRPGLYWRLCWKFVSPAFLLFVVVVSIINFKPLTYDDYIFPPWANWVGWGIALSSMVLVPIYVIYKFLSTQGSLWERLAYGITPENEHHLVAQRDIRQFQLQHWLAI
smiles,measurement,setting,value
"Cl.N#Cc1ccc2[nH]cc(CCCCN3CCN(c4ccc5oc(C(N)=O)cc5c4)CC3)c2c1 [Vilazodone, 5-{4-[4-(5-cyano-3-indolyl)-butyl]-1-piperazinyl}-benzofuran-2-carboxamide hydrochloride]","anti-LID efficacy, high versus low dose","[1]; 20 mg/kg vs 10 mg/kg, initially, dissipated after the first week",greater anti-LID efficacy than the lower dose
same,"ALO AIMs, established LID","[1]; VZD 10 or 20 mg/kg s.c. 5 min prior to L-DOPA 6 mg/kg, vs Vilazodone (0 mg/kg)+L-DOPA (6 mg/kg), from first day throughout treatment",dramatically reduced AIMs
same,"side effects, like 5-HT syndrome","[1]; chronic Vilazodone + L-DOPA in rats, any time point",weren't observed at any time point
same,reduction of development and expression of LID compared with Amantadine,[1]; validated rodent model,more effective than Amantadine
same,FAS motor performance versus baseline,"[2]; L-DOPA-primed rats, VZD 0, 10 or 20 mg/kg + L-DOPA 6 mg/kg, 60 min post-L-DOPA",improvements in rats treated with Vilazodone emerged 7 days later
same,FAS stepping versus Vilazodone (0 mg/kg)+L-DOPA (6 mg/kg),"[2]; VZD 20 mg/kg, Day 29, effect transient",depressed stepping
same,LIDs score / severity,[3],most significant effect on attenuating LIDs; also recorded: significantly reduced LIDs
same,spike probability and onset latency,[4],normalizes spike probability and onset latency
same,Ki,[5],56 nM
same,5-HIAA,[6]; [7],2541 ± 187^ picograms per milligram wet ti
same,5-HT,[6]; [7],7013 ± 462^^ picograms per milligram wet ti
same,5-HT Turnover,[6]; [7],0.37 ± 0.02
same,DA Turnover,[6]; [7],7.60 ± 0.78
same,DOPAC,[6]; [7],1175 ± 234 picograms per milligram wet ti
same,5-HIAA,[6]; [8],1985 ± 345^ picograms per milligram wet ti
same,5-HT,[6]; [8],5946 ± 776^ picograms per milligram wet ti
same,5-HT Turnover,[6]; [8],0.32 ± 0.03
same,DA,[6]; [8],128 ± 15.2 picograms per milligram wet ti
same,DA Turnover,[6]; [8],7.19 ± 1.12
same,DOPAC,[6]; [8],909 ± 186 picograms per milligram wet ti
same,5-HIAA,[6]; [9],470 ± 35.5 picograms per milligram wet ti
same,5-HT,[6]; [9],326 ± 24.3 picograms per milligram wet ti
same,5-HT Turnover,[6]; [9],1.45 ± 0.04
same,DA,[6]; [9],4827 ± 222 picograms per milligram wet ti
same,DA Turnover,[6]; [9],0.85 ± 0.05
same,DOPAC,[6]; [9],4138 ± 332^ picograms per milligram wet ti
same,5-HIAA,[6]; [10],422 ± 38.6 picograms per milligram wet ti
same,5-HT,[6]; [10],305 ± 33.5 picograms per milligram wet ti
same,5-HT Turnover,[6]; [10],1.41 ± 0.07
same,DA,[6]; [10],4560 ± 337 picograms per milligram wet ti
same,DA Turnover,[6]; [10],0.84 ± 0.03
same,DOPAC,[6]; [10],3839 ± 306 picograms per milligram wet ti
same,5-HIAA,[6]; [11],842 ± 78.8 picograms per milligram wet ti
same,5-HT,[6]; [11],261 ± 30.7 picograms per milligram wet ti
same,5-HT Turnover,[6]; [11],3.38 ± 0.31
same,DA,[6]; [11],128 ± 14.2 picograms per milligram wet ti
same,DA Turnover,[6]; [11],1.56 ± 0.18
same,5-HIAA,[6]; [12],596 ± 55.1+ picograms per milligram wet ti
same,5-HT,[6]; [12],223 ± 23.8 picograms per milligram wet ti
same,5-HT Turnover,[6]; [12],2.84 ± 0.33^
same,DA,[6]; [12],128 ± 26.2 picograms per milligram wet ti
same,DA Turnover,[6]; [12],1.50 ± 0.15
same,DOPAC,[6]; [12],190 ± 44.6 picograms per milligram wet ti
same,DRN 5-HT,[6]; Vilazodone 10 mg/kg + L-DOPA,significantly increased DRN 5-HT
same,striatal 5-HT Turnover,"[6]; Vilazodone 20 mg/kg, compared to Vilazodone (0 mg/kg)+L-DOPA (0 mg/kg)",reduced 5-HT Turnover
same,striatal 5-HIAA (printed 5-HIM),"[6]; Vilazodone 20 mg/kg, compared to all other treatments",attenuated 5-HIM
same,DRN DA Turnover,[6]; Vilazodone 10 or 20 mg/kg + L-DOPA,attenuated
same,DA in the lesioned striatum,"[6]; both doses (10, 20 mg/kg) + L-DOPA vs groups receiving Vilazodone vehicle",significantly increased DA
same,DRN 5-HT Turnover,[6]; both doses of Vilazodone + L-DOPA,attenuated 5-HT Turnover
